Results as given in patent publication CN109223750A, “琥珀酸在防治对虾肠炎中的应用” (South China Sea Fisheries Research Institute Chinese …, priority 2018, dated 2019).
Read-outs that look alike come from different tables or passages of the source.

How the values were obtained:
NF-κB = conditions: 7 days, versus enteritis model group
TNF-α = conditions: 7 days, versus enteritis model group
IL-10 = conditions: 7 days, versus enteritis model group
IL-1β = conditions: 7 days, versus enteritis model group
[1] = test system: shrimp intestinal mucosa (对虾 肠道黏膜); conditions: 7 days; for intestinal mucosal damage (histopathology): HE, ×200
[2] = cited from earlier work
bacteria (细菌) = conditions: by raising bacterial proton motive force; cited from earlier work
[3] = test system: tilapia-derived Streptococcus agalactiae β-haemolysin/cytolysin (罗非鱼源无乳链球菌β-溶血/溶细胞素); conditions: cited from earlier work
HIF-1α = conditions: through activation of HIF-1α; cited from earlier work

O=C(O)CCC(=O)O [琥珀酸]
NF-κB expression (NF-κB; high dose: 1% in feed): 显著降低
NF-κB expression (NF-κB; low dose: 0.25% in feed): 显著降低
TNF-α expression (TNF-α; high dose: 1% in feed): 显著降低
TNF-α expression (TNF-α; low dose: 0.25% in feed): 显著降低
IL-10 expression (IL-10; high dose: 1% in feed): 显著降低
IL-10 expression (IL-10; low dose: 0.25% in feed): 显著降低
IL-1β expression (IL-1β; high dose: 1% in feed): 显著降低
IL-1β expression (IL-1β; low dose: 0.25% in feed): 显著降低
intestinal mucosal damage (histopathology) ([1]; high dose: 1% succinic acid in basal feed): 肠道黏膜损伤已修复,形态完整,结构清晰
intestinal epithelial cell height ([1]; high dose: 1% succinic acid in basal feed, versus blank control group and versus low-dose group): 均有明显增加
intestinal mucosal damage (histopathology) ([1]; low dose: 0.25% succinic acid in basal feed): 肠道黏膜损伤已修复,形态完整,结构清晰
intestinal epithelial cell height ([1]; low dose: 0.25% succinic acid in basal feed, versus blank control group): 有明显增加
antibacterial and antioxidant function ([2]; in vivo): 提高
feed conversion ratio ([2]; shrimp): 降低
sensitivity of bacteria to antibiotics (bacteria (细菌)): 能够提高细菌对抗生素的敏感性
activity of β-haemolysin/cytolysin [3]: 抑制
IL-1β secretion, inflammation (HIF-1α): 诱导IL-1β分泌促进炎症
